Literature values in patent publication US6559178B1 (priority 2002, dated 2003).

System: cancer
Conditions: Phase II testing

## CC(=O)OC[C@]12CCC(C)=C[C@H]1O[C@@H]1[C@H](O)[C@@H](OC(C)=O)[C@@]2(C)[C@]12CO2 [Anguidine]
  hematologic toxicity: considerable hematologic toxicity
  tumor response: low tumor response
